For assay [1], the target named is T1, recombinant human cGAS enzyme (hcGAS-ΔN, residues 147–522) (Homo sapiens, UniProt Q8N884).
T1 construct: N-terminally truncated human cGAS (hcGAS-ΔN, residues 147–522); 6xHis-SUMO (N, cleaved yes); made in house; host or cells: Escherichia coli BL21 (DE3)
The assay can be described thus: RNA-based fluorescent biosensor assay of cGAS activity (2',3'-cGAMP formation), in vitro screening. It is filed as biochemical. Summed up:
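In 40 mM Tris-HCl pH 7.5, 100 mM NaCl, 10 mM MgCl2, ISD (0.5 μM) started the reaction with hcGAS-ΔN (1.5 μM), ATP (1 mM) and GTP (1 mM). Incubation was 2 h at 37 °C, with compounds screened at 20 μM. 2',3'-cGAMP formed was quantified with an RNA-based fluorescent biosensor.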

The subject of the next assay is Hela cells. The experiment in a line: HSV-1 cytopathogenic effect, CCK-8 viability (rebuttal Fig. R1). It is filed as cell-based, human. The following applies: 10 μM. In general terms: Protection from cytopathic effect is a common read-out in antiviral testing.
For the next assay, the system named is Trex1^-/- BMDMs. The assay can be described thus: qPCR of Ifnb1, Cxcl10, Il6 mRNA in Trex1-deficient macrophages. Further details: key to Ifnb1 mRNA level (Fig. 7a) / Cxcl10 mRNA level (Fig. 7a) / Il6 mRNA level (Fig. 7a): fold change relative to WT BMDM group. Type of assay: cell-based, mouse. Here is the method: Fold changes are relative to WT BMDM group. p = 0.002 (Ifnb1); p = 0.008 (Cxcl10); p = 0.0005 (Il6). b Schematic representation illustrating the experimental design in the Trex1^-/- mice model of autoimmune diseases. c Survival curves of WT and Trex1^−/− mice treated with DMSO or XQ2B (10 mg/kg) every other day for 11 consecutive days (n = 10 mice per group). p = 0.0352. d WT mice (n = 6) or Trex1^-/- mice (n = 6) were injected intravenously with DMSO or 10 mg/kg XQ2B every other day for 7 consecutive days. Representative H&E-stained tissue sections from WT or Trex1^-/- mice treated with DMSO or XQ2B. The panels are at ×20 magnification. […] Scale bar, 50 μm. Data are representative of two independent experiments with similar results in (f), or three independent experiments in (a) or two independent experiments in (d, e). […] Source data are provided as a Source Data file.
The indicated cells were stimulated with either ISD (Sangon Biotech), HSV-1 (Provided by Dr. Zhengfan Jiang), HSV60mer (Sangon Biotech), SATE-cddA[70], 2’3’-cGAMP (Invivogen, Cat# tlrl-nacga23-1), ADU-S100 (MedChemExpress, Cat# HY-12885A) or Poly(I:C) (Invivogen, Cat# tlrl-pic) after XQ2 or XQ2B treatment. Total RNA was isolated from indicated cells that incubated with the drugs for indicated time or mice tissues by using NucleoZOL reagent (MACHEREY-NAGEL) according to the manufacturer’s instructions. The quantifications of mRNA levels were carried out by real-time PCR using a PerfectStart® Uni RT&qPCR Kit (TransGen Biotech) on the QuantStudio 5 qPCR machine (Applied Biosystems). Samples were carried out in triplicate and the target CT values were normalized to GAPDH CT values. Primers of qPCR used in this study can be found in Supplementary Table S2.
C57BL/6 6–8 weeks old wild type (WT) mice were purchased from Gempharmatech. C57BL/6 Trex1^+/- mice were purchased from Cyagen. Trex1^-/- mice were generated by further mating the male and female Trex1^+/- mice, and 8-week-old male Trex1^-/- mice were used in the experiment. Mice were housed in groups of up to 5 mice/cage at 18 °C − 24 °C ambient temperatures with 40–60% humidity. Mice were maintained on a 12 h light/ dark cycle 6 am to 6 pm. Food and water were available ad libitum. Femurs and tibias were removed from sex-matched mice of 6–8 weeks old, and the ends were clipped. Marrow was pushed from bones by using a syringe, and cell clumps were broken apart into cell particles by pipetting in PBS, and passed through a 70 μm cell strainer. Cells were resuspended in red blood cell lysis buffer (Solarbio) for 5 min after being centrifuged with 200 × g for 5 min, and were resuspended in cell culture media (DMEM) with an additional M-CSF (50 ng/ml) after centrifugation, and then were seeded into a 12-well plate. […]
A general note: Quantitative PCR measures a nucleic acid by following its amplification.

These results are taken from paper PMC10545747, “Development of cyclopeptide inhibitors of cGAS targeting protein-DNA interaction and phase separation” (Nature Communications, 2023).

Usually remaining activity stands for the signal under treatment as a percentage of the control signal. One may read the inhibition as the drop in the measured response relative to a control, in per cent.

Values joined by “and” are separate entries in the source; they are usually repeats but may differ in a detail not shown here. Equal entries are not always repeated. Square brackets hold non-standard residues; d marks the D form. Peptide text beside a SMILES is read from it. Bounds are passed on as bounds.

T1 sequence (Q8N884 147-522, stated change not applied): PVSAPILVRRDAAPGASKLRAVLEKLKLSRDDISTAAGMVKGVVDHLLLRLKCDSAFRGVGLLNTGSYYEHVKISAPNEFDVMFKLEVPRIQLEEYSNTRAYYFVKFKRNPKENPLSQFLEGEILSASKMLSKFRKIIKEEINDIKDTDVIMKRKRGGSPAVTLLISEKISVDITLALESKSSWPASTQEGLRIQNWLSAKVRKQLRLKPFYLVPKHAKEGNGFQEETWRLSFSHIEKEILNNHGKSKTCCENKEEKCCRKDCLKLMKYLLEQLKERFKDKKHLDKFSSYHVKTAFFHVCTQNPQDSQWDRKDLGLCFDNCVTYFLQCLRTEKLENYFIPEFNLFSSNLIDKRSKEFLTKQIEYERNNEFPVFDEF
Description for Hela cells: We tested the effect of XQ2 on human cervical cancer
HSV-1 infection given that epithelial cells are generally weak responders of cGAS-
cells and THP1 cells were pretreated for 3 h with DMSO or XQ2 (10 μM), followed by
the indicated titer of HSV-1 infection. The cell v iability was measured by CCK-8 assay.

On to `CC(C)C[C@@H]1NC(=O)[C@H](CCCNC(=N)N)NC(=O)[C@H](C(C)C)NC(=O)[C@@H]2CCCN2C(=O)[C@@H](Cc2ccccc2)NC(=O)[C@H](CC(C)C)NC(=O)[C@H](CCCNC(=N)N)NC(=O)[C@H](C(C)C)NC(=O)[C@H](C)NC(=O)[C@@H](Cc2ccccc2)NC1=O` [XQ2, Cyclo (LfAVRLfPVR)] (cyclo(L[dF]AVRL[dF]PVR)), for which the “Remaining activity (%), Fig. 1a source data” value in assay [1] (20 μM, replicate values) was 59.4781% and 59.6712%. Further, the remaining activity at 20 µM in assay [1] (20 μM, replicate values, read-out: Remaining activity (%), Fig. 1a source data) came to 59.5%. In assay [1] (peptides screened at 20 μM, Supplementary Table 1 / Fig. S5b, 20 µM), the Inhibition % was at least 40%. Also, in assay [1] (peptides screened at 20 μM, Supplementary Table 1 / Fig. S5b, read-out: Inhibition %), the inhibition at 20 µM was determined as 40%. Further, the “HSV-1 cytopathogenic effect in Hela cells” value in the assay with Hela cells was “further enhanced the CPE”.

Regarding `CC(C)C[C@@H]1NC(=O)[C@H](CCCNC(=N)N)NC(=O)[C@H](C(C)C)NC(=O)[C@@H]2CCCN2C(=O)[C@@H](Cc2ccccc2)NC(=O)[C@H](CC(C)C)NC(=O)[C@H](CCCNC(=N)N)NC(=O)[C@H]([C@@H](C)O)NC(=O)[C@H](C)NC(=O)[C@@H](Cc2ccccc2)NC1=O` [XQ2B] (cyclo([dF]ATRL[dF]PVRL)), in the assay with Trex1^-/- BMDMs (10 μM, 24 h), the “expression of Ifnb1, Cxcl10 and Il6 in Trex1^-/- BMDMs” value is “significantly suppressed the expression of Ifnb1, Cxcl10 and Il6 in Trex1^-/- BMDMs”. Moreover, in the assay with Trex1^-/- BMDMs (Trex1-/- BMDMs, XQ2B vs DMSO), the “Cxcl10 mRNA level (Fig. 7a)” value was 8.243 and 7.282 and 8.602; the “Ifnb1 mRNA level (Fig. 7a)” value is 2.99 and 2.308 and 2.77; the “Il6 mRNA level (Fig. 7a)” value was 7.711 and 7.588 and 8.111.
